Assay results taken from publication PMC6136660 (Steroids, 2018).
Read-outs that look alike come from different tables or passages of the source.

Key:
[1] = system: adrenal axis (first-in-morning serum cortisol); assay: First-in-morning serum cortisol (adrenal suppression biomarker), MAD; type: in vivo
Experimental: All biomarkers were analyzed using standard immunoassays by PRA.
Adrenal suppression is the consequence of a negative feedback loop between high circulating cortisol and pharmacological glucocorticoids and adrenal function, leading to loss of responsiveness of the adrenal cortex to ACTH. Adrenal suppression can be seen both acutely (hours after a single dose of pharmacological glucocorticoids), and chronically. Chronic treatment with glucocorticoids leads to chronic deficiencies in multiple steroidal hormones, including cortisol, testosterone, 17-hydroxyprogesterone, corticosterone, and 11-deoxycortisol. The resulting hormonal imbalance puts patients at increased risk for a series of safety concerns. One is adrenal crisis (inability to mount a cortisol stress response after trauma, severe illness, or surgery, with ensuring risk for shock and death). Other safety concerns in children include delay of puberty and growth stunting. Adrenal suppression can be measured with first-in-morning serum cortisol, reflective of the endogenous diurnal cortisol peak pre-awakening. Measurement of first-in-morning cortisol 24 h after the last drug dose indicates whether the drug has suppressed the normal diurnal cortisol response.
First in morning serum cortisol levels were measured in all Phase 1 MAD subjects, at baseline prior to first administration of vamorolone or placebo, 24 h after the first dose (acute suppression), and 24 h after 14 days of daily dosing (chronic suppression) (Fig. 4). The two placebo subjects from each dose group were combined into the same panel. […] At 9.0 mg/kg/day, there was a decline in morning cortisol in all subjects, with 1 subject below the 3.6 µg/dL after first dose, and 3 of 6 subjects after two weeks of daily dosing. […] One subject stopped dosing due to mild elevation of liver enzymes, and their morning cortisol returned to normal levels within a few days of cessation of dosing (Fig. 4). Direct head-to-head comparisons to prednisone-treated subjects were not done in this Phase 1 trial, but approximate comparisons can be done to published literature. Both Fleishaker et al. and we tested serum cortisol 24 h after the first dose of drug. Fleishaker et al. studied doses of 2.5, 5, 10, 20 mg, 40 mg, and 60 mg, with an average weight of subjects of 80 kg. […] For vamorolone, the dose groups showing decreases in morning cortisol 24 h after the initial dose were 3 mg/kg (9 µg/dL cortisol), 9 mg/kg (6 µg/dL cortisol), and 20 mg/kg (4 µg/dL cortisol). […] Two week prednisone treatment data for morning cortisol was not published.

[2] = Phase 1 single ascending dose (SAD) pharmacokinetics, fasted; type: in vivo, human; conditions: for Vd/F: read-out: Vz/F; for k el: read-out: λz (converted)
Experimental: This clinical trial was a randomized, double-blind, placebo controlled single ascending (SAD) and multiple ascending (MAD) study to evaluate the safety, tolerability, and pharmacokinetics of vamorolone in health adult subjects. The study protocol and its amendments were reviewed and approved by an Institutional Review Board. It was conducted in accordance with the principles of the Declaration of Helsinki in place at the time of study conduct and in compliance with the International Council on Harmonisation (ICH) E6 Guideline for Good Clinical Practice.
In the SAD part of the study, 7 cohorts were to be enrolled. Eight subjects were assigned to each of Cohorts 1 to 5 and 7 and received a single oral dose of vamorolone (planned as 0.1 mg/kg, 0.3 mg/kg, 1.0 mg/kg, 3.0 mg/kg, 8.0 mg/kg, and 20.0 mg/kg, respectively) or placebo under fasted conditions. Six subjects were assigned to Cohort 6 and were administered a single oral dose of 8.0 mg/kg vamorolone within 30 min of beginning a high fat/high calorie meal.
Subjects in Cohorts 1 through 5 and 7 were randomized to receive vamorolone or placebo in a 3:1 ratio (6 subjects received vamorolone, and 2 subjects received placebo) sequentially. In Cohort 1, 3 sentinel subjects were administered vamorolone or placebo in a 2:1 ratio. Following a review of sentinel safety and tolerability data (including reported adverse events [AEs], clinical laboratory tests, vital signs, and electrocardiograms [ECGs]), the remaining 5 subjects were randomized to receive vamorolone or placebo in a 4:1 ratio and dosed no earlier than 48 h after sentinel dosing. In Cohorts 2 to 5, and 7, subjects were administered vamorolone or placebo in a 3:1 ratio. Once Cohort 5 was completed and safety data had been reviewed, subjects in Cohort 6 were administered a single oral dose of 8.0 mg/kg vamorolone within 30 min of beginning a standard high fat/high calorie meal.
The initial starting dose for the vamorolone SAD study was chosen based on 10% of the NOAEL in the most sensitive species (mouse) (0.1 mg/kg). Doses were then escalated by 3-fold increments for 6 dose groups (0.1, 0.3, 1.0, 3.0, 9.0, 20.0 mg/kg). Eight adult male volunteers were studied in each dose group (6 drug-treated, 2 placebo).

[3] = male, human, plasma, single oral 0.1 mg/kg, fasted, geometric mean (%CV)
[4] = male, human, plasma, single oral 0.3 mg/kg, fasted, geometric mean (%CV)
[5] = male, human, plasma, single oral 1 mg/kg, fasted, geometric mean (%CV)
[6] = male, human, plasma, single oral 3 mg/kg, fasted, geometric mean (%CV)
[7] = male, human, plasma, single oral 8 mg/kg, fasted, geometric mean (%CV)
[8] = male, human, plasma, single oral 20 mg/kg, fasted, geometric mean (%CV)

**Q.** Which results are given for C[C@@H]1C[C@H]2[C@@H]3CCC4=CC(=O)C=C[C@]4(C)C3=CC[C@]2(C)[C@@]1(O)C(=O)CO [vamorolone]?
**A.** subjects with morning cortisol below 3.6 µg/dL (adrenal suppression) ([1]; 9.0 mg/kg/day, after first dose, n = 6): 1 subjects; subjects with morning cortisol below 3.6 µg/dL (adrenal suppression) ([1]; 9.0 mg/kg/day, after two weeks of daily dosing): 3 of 6; subjects with morning cortisol below 3.6 µg/dL (adrenal suppression) ([1]; 20.0 mg/kg/day, after a single dose): 4 of 6; subjects with morning cortisol below 3.6 µg/dL (adrenal suppression) ([1]; 20.0 mg/kg/day, after two weeks of dosing): 5/5; adrenal suppression ([1]; 1.0 or 3.0 mg/kg/day dose groups, acute and 14 days): No evidence of adrenal suppression; difference in potency for acute adrenal suppression (prednisone > vamorolone) ([1]; 24 h after the first dose, vamorolone data vs published prednisone data (ref 6)): 10 fold; adrenal suppression potency relative to traditional glucocorticoids ([1]; seen at 9.0 and 20.0 mg/kg/day): ~ 1%; slope of log plot of AUC(inf) vs dose ([2]; SAD 0.1-20 mg/kg): ~1.0; slope of log plot of Cmax vs dose ([2]; SAD 0.1-20 mg/kg): < 1.0; CL/F ([2]; male, human, plasma, oral, across single 0.1 to 20 mg/kg doses, fasted, read-out: CL/F, range of geometric mean values): 29.3 to 38.5 mL/min/kg; half-life ([2]; male, human, plasma, oral, healthy subjects, approximate overall, read-out: half-life (converted)): ~180 min; AUC(0-inf) [2, 3]: 49.5 ng·h/mL; AUC(0-t) [2, 3]: 41.9 ng·h/mL; Cmax [2, 3]: 13.1 ng/mL; CL/F ([2]; male, human, plasma, single oral 0.1 mg/kg, fasted, geometric mean (%CV), read-out: CL/F (converted)): 33.7 mL/min/kg; Vd/F [2, 3]: 4.98 L/kg; half-life ([2]; male, human, plasma, single oral 0.1 mg/kg, fasted, geometric mean (%CV), read-out: t½ (converted)): 103 min; k el [2, 3]: 0.000113 s⁻¹; Tmax ([2]; male, human, plasma, single oral 0.1 mg/kg, fasted, median, read-out: Tmax): 1.5 h; AUC(0-inf) [2, 4]: 170 ng·h/mL; AUC(0-t) [2, 4]: 161 ng·h/mL; Cmax [2, 4]: 50.8 ng/mL; CL/F ([2]; male, human, plasma, single oral 0.3 mg/kg, fasted, geometric mean (%CV), read-out: CL/F (converted)): 29.3 mL/min/kg; Vd/F [2, 4]: 4.07 L/kg; half-life ([2]; male, human, plasma, single oral 0.3 mg/kg, fasted, geometric mean (%CV), read-out: t½ (converted)): 96 min; k el [2, 4]: 0.00012 s⁻¹; Tmax ([2]; male, human, plasma, single oral 0.3 mg/kg, fasted, median, read-out: Tmax): 1.5 h; AUC(0-inf) [2, 5]: 500 ng·h/mL; AUC(0-t) [2, 5]: 486 ng·h/mL; Cmax [2, 5]: 122 ng/mL; CL/F ([2]; male, human, plasma, single oral 1 mg/kg, fasted, geometric mean (%CV), read-out: CL/F (converted)): 33.3 mL/min/kg; Vd/F [2, 5]: 5.22 L/kg; half-life ([2]; male, human, plasma, single oral 1 mg/kg, fasted, geometric mean (%CV), read-out: t½ (converted)): 109 min; k el [2, 5]: 0.000106 s⁻¹; Tmax ([2]; male, human, plasma, single oral 1 mg/kg, fasted, median, read-out: Tmax): 1.75 h; AUC(0-inf) [2, 6]: 1600 ng·h/mL; AUC(0-t) [2, 6]: 1580 ng·h/mL; Cmax [2, 6]: 305 ng/mL; CL/F ([2]; male, human, plasma, single oral 3 mg/kg, fasted, geometric mean (%CV), read-out: CL/F (converted)): 31.3 mL/min/kg; Vd/F [2, 6]: 6.76 L/kg; half-life ([2]; male, human, plasma, single oral 3 mg/kg, fasted, geometric mean (%CV), read-out: t½ (converted)): 150 min; k el [2, 6]: 7.7e-05 s⁻¹; Tmax ([2]; male, human, plasma, single oral 3 mg/kg, fasted, median, read-out: Tmax): 1.75 h; AUC(0-inf) [2, 7]: 3600 ng·h/mL; AUC(0-t) [2, 7]: 4000 ng·h/mL; Cmax [2, 7]: 718 ng/mL; CL/F ([2]; male, human, plasma, single oral 8 mg/kg, fasted, geometric mean (%CV), read-out: CL/F (converted)): 37 mL/min/kg; Vd/F [2, 7]: 10.4 L/kg; half-life ([2]; male, human, plasma, single oral 8 mg/kg, fasted, geometric mean (%CV), read-out: t½ (converted)): 195 min; k el [2, 7]: 5.93e-05 s⁻¹; Tmax ([2]; male, human, plasma, single oral 8 mg/kg, fasted, median, read-out: Tmax): 1.78 h; AUC(0-inf) [2, 8]: 8650 ng·h/mL; AUC(0-t) [2, 8]: 8540 ng·h/mL; Cmax [2, 8]: 1650 ng/mL; CL/F ([2]; male, human, plasma, single oral 20 mg/kg, fasted, geometric mean (%CV), read-out: CL/F (converted)): 38.5 mL/min/kg; Vd/F [2, 8]: 14.2 L/kg; half-life ([2]; male, human, plasma, single oral 20 mg/kg, fasted, geometric mean (%CV), read-out: t½ (converted)): 256 min; k el [2, 8]: 4.52e-05 s⁻¹; Tmax ([2]; male, human, plasma, single oral 20 mg/kg, fasted, median, read-out: Tmax): 1.5 h; Tmax ([2]; male, human, serum, oral suspension formulation (4% vamorolone by weight), read-out: time of peak serum concentrations): ~3 h; CL/F ([2]; single oral 0.1 mg/kg, fasted, geometric mean (%CV)): 168 (20.8) (6) L/h; CL/F ([2]; single oral 0.3 mg/kg, fasted, geometric mean (%CV)): 142 (14.4) (6) L/h; CL/F ([2]; single oral 1 mg/kg, fasted, geometric mean (%CV)): 165 (12.0) (6) L/h; CL/F ([2]; single oral 3 mg/kg, fasted, geometric mean (%CV)): 152 (18.5) (6) L/h; CL/F ([2]; single oral 8 mg/kg, fasted, geometric mean (%CV)): 196 (57.6) (4) L/h; CL/F ([2]; single oral 20 mg/kg, fasted, geometric mean (%CV)): 180 (29.8) (4) L/h
